# Results taken from patent US20200147055A1, “COMPOSITIONS AND METHODS FOR TREATING DRY EYE SYNDROME DELIVERING ANTIBIOTIC MACROLIDE” (Eximore Ltd., priority 2017, published 2020).
# Assay: In vitro release of Tacrolimus from plug samples into releasing medium buffer (PBS + BAK + Triton) at 37 degrees Celsius, HPLC-MS-MS
# Assay type: physicochemical
# Conditions: implants contain approximately 900 micrograms of TAC
# Experimental: In an example of an embodiment of the composition of the present invention, plug samples containing Tacrolimus were prepared. Samples were incubated at 37 degrees Celsius for varying times to determine time effect on Tacrolimus release profile from the sample into a polar solution (PBS).
# The solution included the following: 0.01M PBS, 0.005% BAK, and 0.1% TRITON X-100.
# Composite weight 3 mg with 30% Tacrolimus.
# Development of HPLC-MS-MS Method for Tacrolimus (TCM)
# Table 2 provides a list of samples used in the sustained release profile and cumulative sustained release profile illustrated in FIGS. 4 and 5, respectively. Samples 19-1 to 19-8 are Type A, COM TAC 1. Samples 19-9 to 19-16 are Type A, COM TAC 2. Samples 19-17 to 19-24 are Type B, EPO TAC 1. Samples 19-25 to 19-32 are Type B, EPO TAC 2.
compound,measurement,setting,value
"C=CC[C@@H]1/C=C(\C)C[C@H](C)C[C@H](OC)[C@H]2O[C@@](O)(C(=O)C(=O)N3CCCC[C@H]3C(=O)O[C@H](/C(C)=C/[C@@H]3CC[C@@H](O)[C@H](OC)C3)[C@H](C)[C@@H](O)CC1=O)[C@H](C)C[C@@H]2OC [TAC, (3S,4R,5S,8R,9E,12S,14S,15R,16S,18R,19R,26aS)-5,19-dihydroxy-3-{(1E)-1-[(1R,3R,4R)-4-hydroxy-3-methoxycyclohexyl]prop-1-en-2-yl}-14,16-dimethoxy-4,10,12,18-tetramethyl-8-(prop-2-en-1-yl)-5,6,8,11,12,13,14,15,16,17,18,19,24,25,26,26a-hexadecahydro-3H-15,19-epoxypyrido[2,1-c][1,4]oxazacyclotricosine-1,7,20,21(4H,23H)-tetrone]",TAC average release in vitro,first 3 months,about 1.7 μg/day
same,TAC release in vitro,first month,2 µg/day
same,TAC steady state release in vitro,following 2-3 months,1.5 µg/day
same,estimated duration of release in vitro,,6 months
